Test results taken from PMC11018795, “The regulatory relationship between NAMPT and PD-L1 in cancer and identification of a dual-targeting inhibitor” (EMBO Molecular Medicine, 2024).
“And” between values parts separate entries of the source, which are not always exact repeats. Equal entries are not always repeated.

Columns and labels:
NAMPT = NAMPT (Homo sapiens, UniProt P43490); experiment: In vitro NAMPT activity assay (Abcam kit); type: biochemical; set-up: purchased Abcam ab221819
HCT-116 cells [1] = experiment: MTT assay 48 h, HCT-116; type: cell-based, human
Experimental: (§1) Cells (5 × 10^3/well) were seeded into a 96-well plate and cultured at 37 °C in a 5% CO2 incubator. […] At the final time point, 10 μl MTT solution (5 mg/ml, Sigma, Burlington, MA, USA) was added to each well and incubated for an additional 4 h at 37 °C in a 5% CO2 incubator. Then,100 μl of DMSO was added to each well and mixed thoroughly. Optical density was measured at 492 nm using a microplate reader (Molecular Devices, San Jose, CA, USA).

MDA-MB-231 cells = experiment: MTT assay 48 h, MDA-MB-231; type: cell-based, human
Experimental: as §1

[2] = test system: LLC OE NAMPT cells co-cultured with T cells; experiment: T cell-mediated tumor cell killing assay, LLC OE NAMPT; type: cell-based; details: Mus musculus, 100 nM, read-out: inhibition rate (T cell-mediated killing)
Experimental: To acquire activated T cells, human peripheral blood mononuclear cells (PBMC; LTS1077, Yanjin Biological) were cultured in CTSTM AIIM VTM SFM (A3021002; Gibco) with ImmunoCult Human CD3/CD28/CD2 T-cell activator (25 µL/mL; […] Technologies, Cat#10970) for 48 h according to the manufacturer’s protocol. The experiments were performed using mouse anti-CD3 antibody (1 µg/mL; Thermo Scientific, 16-0032-82) and anti-CD28 antibody(5 µg/mL; Thermo Scientific, 16-0281-82). Cancer cells were allowed to adhere to the plates overnight and then incubated for 48 h with activated T cells in the presence or absence of DX ([…]). Different proportions of cancer cells and activated T cells were utilized according to the purpose of each experiment. The T-cell proliferation assay was 1:3; the T-cell killing assay was 1:10; T cells and cell debris were removed by PBS washing, and the living cancer cells were then quantified by a spectrometer at OD (570 nm) followed by crystal violet staining. page 12: Fig 3: […] expression patterns. […] Data was obtained from the TCGA database. (B) T cell-mediated tumor cell killing assay. T cells were co-cultured with LLC Vector, […] CQ-85, or BMS202. […] stained by crystal violet. The relative added value of activated T cells is shown below. Data are presented as mean ± SEM; *P < 0.05, **P < 0.01, ***P < 0.001, compared with control. n.s., not significant. […]

[3] = In vitro metabolic stability in human liver microsome; type: in vitro ADME
Experimental: 2) Pharmacokinetics: Human liver microsomal stability assay is widely adopted in the preliminary evaluation for pharmacokinetic properties, reflecting the potential metabolic stability of indicated compounds in the human body. Thus, considering the […]
activity of LZFPN-90, it was further evaluated for potential metabolism in human liver microsome. The intrinsic clearance for LZFPN-90 in human liver microsome is 0.035 mL/min/mg. According to the classical criteria (Low clearance: CLint < 0.01 mL/min/mg; medium clearance: 0.01 ≤ CLint ≤ 0.1 mL/min/mg; high clearance: CLint > […]
indicating its potential for further development. […]
Table 1. In Vitro Metabolic Stability of LZFPN-90 in Human Liver Microsome T1/2 CLint, in vitro Remaining
(min)a (mL/min/mg)b (T = 60 min) […]
b CLint: intrinsic clearance, CLint(mic)=0.693/T1/2/mg microsomal protein/mL
(1 picture or pasted object on this page, not shown here)

Hep-3B cells = experiment: MTT assay 48 h, Hep-3B; type: cell-based, human
Experimental: as §1

LLC cells = experiment: Apoptosis assay (Annexin V/PI), LLC; type: cell-based, mouse
Experimental: The cells are treated with the compounds. After 48–72 h, the cells were harvested and washed twice with cold PBS. The cells were then stained with Annexin V/propidium iodide (PI) (BD Biosciences) and examined using a NovoCyte Flow Cytometer (ACEA Biosciences). Data were analyzed using NovoExpress software (ACEA Biosciences).

[4] = test system: LLC OE NAMPT/PD-L1 tumors; experiment: LLC OE NAMPT/PD-L1 tumor-bearing C57BL/6 mice; type: in vivo, mouse; details: 20 mg/kg i.p.
HCT-116 cells [5] = experiment: Cell cycle analysis, HCT-116; type: cell-based, human
From the text: Supplement 44321_2024_51_MOESM5_ESM.zip/Fig4-D.xlsx, sheet "Sheet1" | column: G0/G1; S; G2/M

HCT-116 cells [6] = experiment: Clonogenic assay, HCT-116; type: cell-based, human; details: 9 days
Experimental: Cells (3 × 10^2/well) were plated in a six-well plate and the culture medium was replaced every 2 days. After culturing for 7–10 d, the cells were fixed with 4% paraformaldehyde for 15 min, stained with 0.1% crystal violet for 30 min, and imaged and counted.

[7] = test system: NAD+ content of A2780 cells; experiment: NAD+ assay in A2780 cells; type: cell-based, human; details: for Relative NAD+: 0 nM = 100
Experimental: NAD^+ assays were performed to quantify the total NAD^+ content. NAD^+ assay was performed using the NAD/NADH Assay Kit (ab65348; Abcam) according to the manufacturer’s recommended protocol.

HepG2 cells = experiment: MTT assay 48 h, HepG2; type: cell-based, human
Experimental: as §1

A20 tumors = experiment: A20 tumor-bearing Balb/c mice; type: in vivo, mouse; details: for tumor inhibition rate (TIR) / tumor growth inhibition (TGI) rate at endpoint: 12 days, Fig 6B

Sequence of NAMPT (P43490 whole entry, species assumed): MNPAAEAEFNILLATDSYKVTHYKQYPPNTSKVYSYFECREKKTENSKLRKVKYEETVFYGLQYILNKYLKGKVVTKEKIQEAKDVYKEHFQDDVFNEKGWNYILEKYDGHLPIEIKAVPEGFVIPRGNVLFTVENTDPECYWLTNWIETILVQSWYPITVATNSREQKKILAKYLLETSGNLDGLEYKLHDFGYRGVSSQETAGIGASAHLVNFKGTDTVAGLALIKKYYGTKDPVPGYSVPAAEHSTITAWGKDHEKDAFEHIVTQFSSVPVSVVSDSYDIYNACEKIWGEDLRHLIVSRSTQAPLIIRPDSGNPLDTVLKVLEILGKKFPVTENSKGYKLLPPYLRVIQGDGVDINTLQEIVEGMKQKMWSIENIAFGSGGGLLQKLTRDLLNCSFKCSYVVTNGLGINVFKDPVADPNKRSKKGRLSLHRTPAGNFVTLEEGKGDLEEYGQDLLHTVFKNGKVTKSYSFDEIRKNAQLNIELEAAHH

SMILES: CCN(CC)CCCOc1cccc(-c2cccc3c2CCN3C(=O)c2ncc(CNC(=NC#N)Nc3ccncc3)s2)c1 [LZFPN-90]
- IC50 (NAMPT): 28 nM
- mode of NAMPT inhibition (NAMPT; concluded from NMN reversal of NAD+ reduction): NAMPT competitive inhibitor
- Relative inhibition (敏感性) (HCT-116 cells [1]): 0.61
- Relative inhibition (敏感性) (MDA-MB-231 cells): 0.09
- inhibition at 0.1 µM [2]: ~60%
- stability in human liver microsome ([3]; criteria: low CLint < 0.01, medium 0.01-0.1, high > 0.1 mL/min/mg): moderate stability in human liver microsome
- Remaining (T = 60 min) ([3]; human liver microsome): 36.8%
- half-life ([3]; liver microsomes, human liver microsome): 39.6 min
- microsomal CLint ([3]; liver microsomes, human liver microsome, read-out: CLint, in vitro (intrinsic clearance)): 35 µL/min/mg
- Relative inhibition (敏感性) (Hep-3B cells): 0.42
- Apoptotic cells (sum of both Annexin-positive quadrants) (LLC cells; LZ90 15 nM): 5.3 and 5.6 and 7.76
- Apoptotic cells (sum of both Annexin-positive quadrants) (LLC cells; LZ90 60 nM): 15.11 and 14.38 and 15.17
- Apoptotic cells (sum of both Annexin-positive quadrants) (LLC cells; LZ90 240 nM): 25.37 and 24.61 and 22.88
- TIR / tumor growth inhibition (TGI) rate at endpoint ([4]; 14 days, Fig 7B): 76.01%
- TIR (relative tumor weight) ([4]; LLC OE NAMPT/PD-L1, Fig 7G): 76.0%
- effect on the organs of mice ([4]; LLC OE NAMPT/PD-L1 model): minor effect on the organs of mice
- Cell cycle G0/G1 (HCT-116 cells [5]; LZ90 20): 30.68 and 20.48 and 22.54
- Cell cycle G2/M (HCT-116 cells [5]; LZ90 20): 39.61 and 24.71 and 42.91
- Cell cycle S (HCT-116 cells [5]; LZ90 20): 43.42 and 36.35 and 37.23
- Cell cycle G0/G1 (HCT-116 cells [5]; LZ90 40): 26.06 and 19.94 and 21.52
- Cell cycle G2/M (HCT-116 cells [5]; LZ90 40): 39.6 and 30.95 and 41.08
- Cell cycle S (HCT-116 cells [5]; LZ90 40): 42.06 and 38.61 and 38.5
- Cell cycle G0/G1 (HCT-116 cells [5]; LZ90 60): 42.69 and 40.27 and 41.43
- Cell cycle G2/M (HCT-116 cells [5]; LZ90 60): 18.16 and 13.12 and 19.4
- Cell cycle S (HCT-116 cells [5]; LZ90 60): 43.44 and 39.68 and 39.66
- Colony formation relative to Ctrl (HCT-116 cells [6]; LZ90-H (2 nM)): 0.17
- Colony formation relative to Ctrl (HCT-116 cells [6]; LZ90-L (0.5 nM), Ctrl = 1): 0.6
- Colony formation relative to Ctrl (HCT-116 cells [6]; LZ90-M (1 nM)): 0.26
- effect on NAD+ content ([7]; A2780 cells): concentration-dependent reduction in the NAD^+ content
- Relative NAD+ ([7]; LZFPN-90 1.25 nM): 35.1891 and 32.3761
- Relative NAD+ ([7]; LZFPN-90 2.5 nM): 12.5247 and 11.2894
- Relative NAD+ ([7]; LZFPN-90 5 nM): 8.877 and 6.867
- Relative NAD+ ([7]; LZFPN-90 10 nM): 2.626 and 2.637
- Relative inhibition (敏感性) (HepG2 cells): 0.58
- tumor inhibition rate (TIR) / tumor growth inhibition (TGI) rate at endpoint (A20 tumors; 20 mg/kg i.p.): 73.76%
- tumor inhibition rate (TIR) / tumor growth inhibition (TGI) rate at endpoint (A20 tumors; 40 mg/kg i.p.): 83.11%
- effect on mouse organ or body weight (A20 tumors; A20 model, FK866 20 mg/kg, LZFPN-90 20 and 40 mg/kg i.p.): no obvious effect on mouse organ or body weight
- TIR (relative tumor weight) (A20 tumors; Balb/c mice, 20 mg/kg i.p., Fig 6E): 73.8%
- tumor inhibition rate (TIR) (A20 tumors; repeat experiment, 40 mg/kg i.p.): 82.70%
- effect on mouse organ index or body weight (A20 tumors; repeat experiment, LZFPN-90 40 mg/kg, FK866 20 mg/kg + CQ-85 20 mg/kg i.p.): no obvious effect on mouse organ index or body weight
- effect on body weight and organ index (A20 tumors; two animal models (A20 and LLC OE NAMPT/PD-L1)): did not affect the body weight and organ index
